Experimental findings from patent US8710233B2 (Gruenenthal GmbH, priority 2005, dated 2014) are described below.

Common to all, as to assay type: cell-based
For test [1], the target named is T1, vanilloid receptor 1 (VR1/TRPV1) of the rat species (Rattus norvegicus, UniProt O35433).
T1 construct: The spinal column is removed from decapitated rats; from tissue; host or cells: primary cells dissociated from rat dorsal root ganglia
Description: FLIPR Ca2+ influx assay on rat dorsal root ganglia cells (pharmacological method I). Particulars: table 4; capsaicin; read-out: Ki (rat) Cap. In short, it runs like this:
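Primary rat dorsal root ganglion cells loaded with 2 μM Fluo-4, Ca2+ influx read on FLIPR as peak fluorescence. Triplicates, at least 3 independent experiments.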

Another test deals with T2, vanilloid receptor (VR1) (Homo sapiens, UniProt Q8NER1).
T2 construct: expressed in transfected cells; host or cells: CHO K1 cells (ECACC), stably transfected
T2 sequence (Q8NER1 whole entry): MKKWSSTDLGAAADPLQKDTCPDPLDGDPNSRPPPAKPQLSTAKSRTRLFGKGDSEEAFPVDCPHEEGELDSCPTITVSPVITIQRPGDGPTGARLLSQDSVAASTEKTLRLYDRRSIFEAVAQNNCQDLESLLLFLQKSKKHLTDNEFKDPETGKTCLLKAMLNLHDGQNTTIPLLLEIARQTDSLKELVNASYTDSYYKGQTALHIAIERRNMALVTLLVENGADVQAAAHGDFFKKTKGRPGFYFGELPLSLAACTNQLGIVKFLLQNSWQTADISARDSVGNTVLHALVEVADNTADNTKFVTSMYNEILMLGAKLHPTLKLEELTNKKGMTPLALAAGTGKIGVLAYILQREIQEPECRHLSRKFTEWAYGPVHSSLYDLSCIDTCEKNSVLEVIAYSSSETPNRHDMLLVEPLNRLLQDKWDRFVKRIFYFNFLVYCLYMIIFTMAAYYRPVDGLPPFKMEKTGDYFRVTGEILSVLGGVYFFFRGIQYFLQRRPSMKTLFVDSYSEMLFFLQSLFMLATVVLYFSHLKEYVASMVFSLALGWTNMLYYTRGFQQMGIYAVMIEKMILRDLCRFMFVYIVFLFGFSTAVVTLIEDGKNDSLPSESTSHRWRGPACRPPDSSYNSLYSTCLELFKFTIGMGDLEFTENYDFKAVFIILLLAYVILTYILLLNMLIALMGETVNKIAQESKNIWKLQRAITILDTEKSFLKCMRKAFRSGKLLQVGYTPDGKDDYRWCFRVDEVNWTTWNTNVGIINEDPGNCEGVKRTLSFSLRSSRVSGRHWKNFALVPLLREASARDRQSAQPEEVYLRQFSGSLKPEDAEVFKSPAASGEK
Briefly: FLIPR Ca2+ influx assay on CHO K1 cells transfected with the VR1 gene (pharmacological method II). Particulars: table 4; capsaicin; read-out: Ki (human) Cap.

The next test has as its target VR1/TRPV1 receptor (Homo sapiens, UniProt Q8NER1). Description: IC50 (human) after pH stimulus. Particulars: for inhibition at 0.1 µM / inhibition at 1 µM / inhibition at 10 µM: read-out: inhibition in percent, IC50 (human) after pH stimulus; for inhibition at 1 µM: ne = no effect; for IC50: table 4.

T1 sequence (O35433 whole entry): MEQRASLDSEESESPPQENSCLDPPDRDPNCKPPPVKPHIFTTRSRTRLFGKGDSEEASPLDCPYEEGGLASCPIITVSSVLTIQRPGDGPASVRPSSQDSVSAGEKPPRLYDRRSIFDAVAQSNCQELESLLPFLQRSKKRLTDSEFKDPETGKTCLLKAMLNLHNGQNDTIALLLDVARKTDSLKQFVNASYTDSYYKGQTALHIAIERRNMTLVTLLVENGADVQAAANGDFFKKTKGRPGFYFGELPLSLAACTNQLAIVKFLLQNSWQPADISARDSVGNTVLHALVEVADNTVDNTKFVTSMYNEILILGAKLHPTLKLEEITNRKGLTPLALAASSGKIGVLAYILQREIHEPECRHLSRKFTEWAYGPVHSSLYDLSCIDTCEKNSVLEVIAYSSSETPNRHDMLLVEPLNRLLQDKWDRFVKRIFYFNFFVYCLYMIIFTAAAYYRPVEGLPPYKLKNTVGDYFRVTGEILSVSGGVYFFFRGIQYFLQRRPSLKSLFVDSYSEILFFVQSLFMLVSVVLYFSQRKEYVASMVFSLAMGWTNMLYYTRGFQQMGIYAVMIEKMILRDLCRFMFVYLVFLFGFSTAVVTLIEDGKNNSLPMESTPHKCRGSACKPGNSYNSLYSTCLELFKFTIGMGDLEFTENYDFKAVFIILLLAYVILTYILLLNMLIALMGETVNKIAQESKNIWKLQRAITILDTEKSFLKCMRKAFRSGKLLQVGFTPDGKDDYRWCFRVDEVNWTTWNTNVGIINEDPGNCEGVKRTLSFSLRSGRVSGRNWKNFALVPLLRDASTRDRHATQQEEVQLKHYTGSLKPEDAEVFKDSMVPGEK
VR1/TRPV1 receptor, sequence (Q8NER1 whole entry): as the sequence (Q8NER1 whole entry) above

With `COc1ccc(N2CCN(c3cc(C(F)(F)F)ccc3CNC(=O)C(C)c3ccc(NS(C)(=O)=O)c(F)c3)CC2)cc1` (stereo not shown) [Example 249, 2-(3-fluoro-4-methylsulfonamido-phenyl)-N-{2-[4-(4-methoxy-phenyl)-piperazin-1-yl]-4-trifluoromethyl-benzyl}-propionamide], in test [1], the Ki stood at 0.2 nM. Moreover, the Ki on vanilloid receptor (VR1) was 1.6 nM. On VR1/TRPV1 receptor, the inhibition at 0.1 µM was determined as 31% and the inhibition at 1 µM stood at 70%.

In the case of `CC(C(=O)NCc1ccc(C(F)(F)F)nc1-c1ccc(Cl)c(Cl)c1)c1ccc(NS(C)(=O)=O)c(F)c1` (stereo not shown) [Example 250, N-[2-(3,4-dichloro-phenyl)-6-trifluoromethyl-pyridin-3-ylmethyl]-2-(3-fluoro-4-methylsulfonamido-phenyl)-propionamide], in test [1], the Ki came to 0.9 nM. The inhibitory constant (Ki) on vanilloid receptor (VR1) worked out at 0.9 nM. Also, on VR1/TRPV1 receptor, the inhibition at 1 µM was determined as 51% and the inhibition at 10 µM was 68%.

Consider `CC(C(=O)NCc1ccc(C(F)(F)F)nc1N1CCC2(CC1)CC(C(C)(C)C)=NO2)c1ccc(NS(C)(=O)=O)c(F)c1` (stereo not shown) [Example 251, N-[2-(3-tert-butyl-1-oxa-2,8-diaza-spiro[4.5]dec-2-en-8-yl)-6-trifluoromethyl-pyridin-3-ylmethyl]-2-(3-fluoro-4-methylsulfonamido-phenyl)-propionamide], for which the results for the Ki (in test [1]; at vanilloid receptor (VR1)) were 8.7 nM and 3.8 nM, respectively. Also, the IC50 against VR1/TRPV1 receptor stood at 281 nM.

Take `CC(C(=O)NCc1ccc(C(F)(F)F)nc1N1CCC2(CC1)CC(c1ccccc1)=NO2)c1ccc(NS(C)(=O)=O)c(F)c1` (stereo not shown) [Example 252, 2-(3-fluoro-4-methylsulfonamido-phenyl)-N-[2-(3-phenyl-1-oxa-2,8-diaza-spiro[4.5]dec-2-en-8-yl)-6-trifluoromethyl-pyridin-3-ylmethyl]-propionamide]: the Ki came to 17.9 nM in test [1] and 6.1 nM on vanilloid receptor (VR1). Also, the IC50 at VR1/TRPV1 receptor stood at 289 nM.

Regarding `COc1ccc(-c2nc(C(F)(F)F)ccc2CNC(=O)C(C)c2ccc(NS(C)(=O)=O)c(F)c2)cc1F` (stereo not shown) [Example 254, 2-(3-fluoro-4-methylsulfonamido-phenyl)-N-[2-(3-fluoro-4-methoxy-phenyl)-6-trifluoromethyl-pyridin-3-ylmethyl]-propionamide], the results for the Ki (in test [1]; on vanilloid receptor (VR1)) were 1.3 nM and 4.2 nM, respectively. In addition, the inhibition at 0.1 µM on VR1/TRPV1 receptor is 19%. Further, on VR1/TRPV1 receptor, the inhibition at 1 µM was 63%.

Take `CC(C(=O)NCc1ccc(C(F)(F)F)cc1N1CCC(c2ccc(F)cc2)CC1)c1ccc(NS(C)(=O)=O)c(F)c1` (stereo not shown) [Example 255, 2-(3-fluoro-4-methylsulfonamido-phenyl)-N-{2-[4-(4-fluoro-phenyl)-piperidin-1-yl]-4-trifluoromethyl-benzyl}-propionamide]: the Ki amounted to 1.3 nM in test [1] and 0.9 nM on vanilloid receptor (VR1). Besides, the IC50 at VR1/TRPV1 receptor was 101 nM.

Take `CCCCOc1nc(C(F)(F)F)ccc1CNC(=O)C(C)c1ccc(NS(C)(=O)=O)c(C)c1` (stereo not shown) [Example 256, N-(2-butoxy-6-trifluoromethyl-pyridin-3-ylmethyl)-2-(4-methylsulfonamido-3-methyl-phenyl)-propionamide]: the results for the Ki (in test [1]; on vanilloid receptor (VR1)) were 0.3 nM and 0.6 nM, respectively. Moreover, on VR1/TRPV1 receptor, the inhibition at 1 µM was 59%.

Take `CCCCCCOc1nc(C(F)(F)F)ccc1CNC(=O)C(C)c1ccc(NS(C)(=O)=O)c(C)c1` (stereo not shown) [Example 257, N-(2-hexyloxy-6-trifluoromethyl-pyridin-3-ylmethyl)-2-(4-methylsulfonamido-3-methyl-phenyl)-propionamide]: the figures for the Ki (in test [1]; at vanilloid receptor (VR1)) were 0.3 nM and 0.6 nM, respectively. For the same compound, the inhibition at 1 µM on VR1/TRPV1 receptor came to 67%.

In the case of `CC(C(=O)NCc1ccc(C(F)(F)F)nc1OCc1ccc(Cl)cc1)c1ccc(NS(C)(=O)=O)c(F)c1` (stereo not shown) [Example 258, N-[2-(4-chloro-benzyloxy)-6-trifluoromethyl-pyridin-3-ylmethyl]-2-(3-fluoro-4-methylsulfonamido-phenyl)-propionamide], the Ki is 1.3 nM in test [1] and 2.5 nM at vanilloid receptor (VR1). This compound also registered an IC50 against VR1/TRPV1 receptor of 132 nM.

In the case of `CC(C(=O)NCc1ccc(C(F)(F)F)nc1N1CCC(CN(C)C)(c2ccccc2)CC1)c1ccc(NS(C)(=O)=O)c(F)c1` (stereo not shown) [Example 259, N-(4-dimethylaminomethyl-4-phenyl-6′-trifluoromethyl-3,4,5,6-tetrahydro-2H-[1,2′]bipyridinyl-3′-ylmethyl)-2-(3-fluoro-4-methylsulfonamido-phenyl)-propionamide], in test [1], the Ki is 22.8 nM. The Ki at vanilloid receptor (VR1) was 15.4 nM. On VR1/TRPV1 receptor, the inhibition at 1 µM was determined as 51% and the inhibition at 10 µM was determined as 47%.

As to `CC(C(=O)NCc1ccc(C(F)(F)F)nc1N1CCN(C2CCCCC2)CC1)c1ccc(NS(C)(=O)=O)c(F)c1` (stereo not shown) [Example 260, N-[2-(4-cyclohexyl-piperazin-1-yl)-6-trifluoromethyl-pyridin-3-ylmethyl]-2-(3-fluoro-4-methylsulfonamido-phenyl)-propionamide], the Ki in test [1] was 25.3 nM. Further, the Ki at vanilloid receptor (VR1) worked out at 21.6 nM. Besides, on VR1/TRPV1 receptor, the inhibition at 1 µM was 51% and the inhibition at 10 µM is 66%.

Take `CC1CCN(c2nc(C(F)(F)F)ccc2CNC(=O)C(C)c2ccc(NS(C)(=O)=O)cc2)CC1` (stereo not shown) [Example 262, 2-(4-methylsulfonamido-phenyl)-N-(4-methyl-6′-trifluoromethyl-3,4,5,6-tetrahydro-2H-[1,2′]bipyridinyl-3′-ylmethyl)-propionamide]: in test [1], the Ki turned out to be 1.7 nM. Also, the Ki at vanilloid receptor (VR1) was found to be 1.2 nM. Further, at VR1/TRPV1 receptor, the inhibition at 0.1 µM worked out at 6% and the inhibition at 1 µM came out at 58%.

As to `CC(C(=O)NCc1ccc(C(F)(F)F)nc1CCC(C)(C)C)c1ccc(NS(C)(=O)=O)c(F)c1` (stereo not shown) [Example 263, N-[2-(3,3-dimethyl-butyl)-6-trifluoromethyl-pyridin-3-ylmethyl]-2-(3-fluoro-4-methylsulfonamido-phenyl)-propionamide], the Ki in test [1] was 0.7 nM; at vanilloid receptor (VR1), 0.6 nM. Also, on VR1/TRPV1 receptor, the inhibition at 1 µM is 63%.

Turning to `Cc1ccc(CCc2nc(C(F)(F)F)ccc2CNC(=O)C(C)c2ccc(NS(C)(=O)=O)c(F)c2)cc1` (stereo not shown) [Example 264, 2-(3-fluoro-4-methylsulfonamido-phenyl)-N-[2-(2-p-tolyl-ethyl)-6-trifluoromethyl-pyridin-3-ylmethyl]-propionamide], the results for the Ki (in test [1]; at vanilloid receptor (VR1)) were 0.9 nM and 0.6 nM, respectively. On VR1/TRPV1 receptor, this compound returned an IC50 of 15.9 nM.

Regarding `CC(C(=O)NCc1ccc(C(F)(F)F)nc1-c1ccc2c(c1)OCCO2)c1ccc(NS(C)(=O)=O)c(F)c1` (stereo not shown) [Example 265, N-[2-(2,3-dihydro-benzo[1,4]dioxin-6-yl)-6-trifluoromethyl-pyridin-3-ylmethyl]-2-(3-fluoro-4-methylsulfonamido-phenyl)-propionamide], the Ki in test [1] is 2.5 nM. Also, the inhibition constant (Ki) on vanilloid receptor (VR1) was found to be 5 nM. On VR1/TRPV1 receptor, the inhibition at 0.1 µM is 17% and the inhibition at 1 µM is 33%.

Turning to `CCCCCCc1nc(C(F)(F)F)ccc1CNC(=O)C(C)c1ccc(NS(C)(=O)=O)c(F)c1` (stereo not shown) [Example 267, 2-(3-fluoro-4-methylsulfonamido-phenyl)-N-(2-hexyl-6-trifluoromethyl-pyridin-3-ylmethyl)-propionamide], the values for the Ki (in test [1]; at vanilloid receptor (VR1)) were 1.7 nM and 1.6 nM, respectively. Moreover, inhibition on VR1/TRPV1 receptor was half-maximal at 24 nM (IC50).

A word on the Ki: it is a dissociation constant, usually derived from enzyme kinetics or from competition with a known ligand. For orientation: inhibition means the relative decrease from the control value, in per cent. For orientation: IC50 means the concentration at which inhibition is half-maximal. Low readings indicate higher potency, high ones lower potency.
